Assay results as given in BindingDB's records for PubMed 33548635 (University of Aveiro, 2021).

Tests used:
[1] = target: T1, Amyloid-beta precursor protein (Homo sapiens, UniProt P05067); experiment: Inhibition of amyloid beta 42 secretion transfected in human H4 cells incubated for 20 to 24 hrs by LPECL assay
[2] = target: T1, Amyloid-beta precursor protein; experiment: Inhibition of amyloid beta 40 secretion transfected in human H4 cells incubated for 20 to 24 hrs by LPECL assay

T1 sequence (P05067 whole entry): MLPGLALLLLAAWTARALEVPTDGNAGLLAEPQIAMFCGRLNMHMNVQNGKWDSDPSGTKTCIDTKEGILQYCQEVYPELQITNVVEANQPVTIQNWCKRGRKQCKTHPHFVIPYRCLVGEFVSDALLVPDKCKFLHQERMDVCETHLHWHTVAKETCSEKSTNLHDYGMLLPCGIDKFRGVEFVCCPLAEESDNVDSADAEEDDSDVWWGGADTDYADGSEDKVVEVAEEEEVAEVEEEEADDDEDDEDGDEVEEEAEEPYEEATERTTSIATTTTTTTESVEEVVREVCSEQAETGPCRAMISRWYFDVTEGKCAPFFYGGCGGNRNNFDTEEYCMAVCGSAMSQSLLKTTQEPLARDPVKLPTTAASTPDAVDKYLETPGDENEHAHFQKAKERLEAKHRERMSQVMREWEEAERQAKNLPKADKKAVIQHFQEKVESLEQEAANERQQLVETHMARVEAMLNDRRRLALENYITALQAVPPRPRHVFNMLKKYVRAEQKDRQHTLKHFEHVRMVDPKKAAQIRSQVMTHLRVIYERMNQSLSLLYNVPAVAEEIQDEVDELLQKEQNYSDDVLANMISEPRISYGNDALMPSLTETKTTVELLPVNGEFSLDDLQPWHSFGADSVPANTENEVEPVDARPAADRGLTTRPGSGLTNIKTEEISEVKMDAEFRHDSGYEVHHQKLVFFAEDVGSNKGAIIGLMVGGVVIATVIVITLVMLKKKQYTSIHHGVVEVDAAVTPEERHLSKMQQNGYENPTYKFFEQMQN

`COc1cc(/C=C/c2cc(/C=C/c3ccc(O)c(OC)c3)n(-c3ccccc3)n2)ccc1O` showed an IC50 [1] of 14.2 µM and an IC50 [2] of 11.3 µM.
`COc1cc(/C=C/c2cc(/C=C/c3ccc(O)c(OC)c3)n(-c3cccc([N+](=O)[O-])c3)n2)ccc1O` was tested, and the IC50 [1] was 14.2 µM and the IC50 [2] was 15.1 µM.
For `COc1cc(/C=C/c2cc(/C=C/c3ccc(OCC(=O)OC(C)(C)C)c(OC)c3)on2)ccc1OCC(=O)OC(C)(C)C`, the IC50 [1] was greater than 40 µM and the IC50 [2] was greater than 40 µM.
Compound `COc1cc(/C=C/c2cc(/C=C/c3ccc(OCC(=O)O)c(OC)c3)on2)ccc1OCC(=O)O` has an IC50 [1] greater than 40 µM and an IC50 [2] of 14.1 µM.
For `COc1cc(/C=C/c2cc(/C=C/c3ccc(O)c(OC)c3)n(Cc3ccccc3)n2)ccc1O`, the IC50 [1] was 15.3 µM and the IC50 [2] was 11.5 µM.
Work on `COc1cc(/C=C/c2cc(/C=C/c3ccc(O)c(OC)c3)n(-c3ccc([N+](=O)[O-])cc3)n2)ccc1O` yielded an IC50 [2] of 6.2 µM.
`COc1cc(/C=C/c2cc(/C=C/c3ccc(O)c(OC)c3)n(-c3ccc(Cl)nn3)n2)ccc1O` showed an IC50 [1] of 4.8 µM and an IC50 [2] of 5.4 µM.
Compound `COc1cc(/C=C/c2cc(/C=C/c3ccc(O)c(OC)c3)n(-c3ccc(C)cc3)n2)ccc1O` has an IC50 [1] of 5 µM and an IC50 [2] of 8.7 µM.
With `COc1cc(/C=C/c2cc(/C=C/c3ccc(O)c(OC)c3)n(-c3ccc(C(C)C)cc3)n2)ccc1O` the IC50 [1] was 4.4 µM and the IC50 [2] was 6.9 µM.
`COc1cc(/C=C/c2cc(/C=C/c3ccc(O)c(OC)c3)n(C)n2)ccc1O` was tested, and the IC50 [1] was 9 µM and the IC50 [2] was 10.4 µM.
`COc1cc(/C=C/c2cc(/C=C/c3ccc(O)c(OC)c3)n(CCO)n2)ccc1O` was tested, and the IC50 [1] was 17.3 µM and the IC50 [2] was 17.8 µM.
`COc1cc(/C=C/c2cc(/C=C/c3ccc(O)c(OC)c3)n(-c3cc(Cl)cc(Cl)c3)n2)ccc1O` was tested, and the IC50 [1] was 3.5 µM and the IC50 [2] was 6.3 µM.
In the case of `COc1cc(/C=C/c2cc(/C=C/c3ccc(O)c(OC)c3)[nH]n2)ccc1O` [4-(2-(5-(4-hydroxy-3-methoxystyryl)-1H-pyrazol-3-yl)vinyl)-2-methoxyphenol], the IC50 [1] is reported as 8.7 µM and the IC50 [2] is reported as 9.7 µM.
`COc1cc(/C=C/c2cc(/C=C/c3ccc(O)c(OC)c3)on2)ccc1O` [4-((E)-2-{3-[(E)-2-(4-hydroxy-3-methoxyphenyl)vinyl]isoxazol-5-yl}vinyl)-2-methoxyphenol] gave an IC50 [1] of 6.8 µM and an IC50 [2] of 7.4 µM.
